Data from patent publication US4533553A, “Polycyclic ether antibiotic” (priority 1983, dated 1985).

Experiments:
[1] = system: rumen fluid; experiment: in vitro rumen technique, propionic acid production; design: species or system cow; conditions: for increase in propionic acid: comparison with Salinomycin
Procedure: The value of animal feeds generally has been determined directly by feeding the animal. British Patent Specification No. 1,197,826 details an in vitro rumen technique whereby the changes occurring in feeds brought about by microorganisms are measured more readily and with great accuracy in the evaluation of animal feeds. This technique involves the use of an apparatus in which the digestive processes of the animals are conducted and studied in vitro. The animal feeds, rumen inoculum and various growth promotants are introduced into and withdrawn from a laboratory unit under carefully controlled conditions and the changes taken place are studied critically and progressively during the consumption of the feed by the microorganisms. […] The change in propionic acid content is expressed as percent of the propionic acid content found in the control rumen fluid. Long term in vivo feeding studies are used to show a reliable correlation between propionic acid increase in the rumen fluid and improved animal performance.
Rumen fluid is collected from a fistulated cow which is fed on a commercial fattening ration plus hay. The rumen fluid is immediately filtered through cheese cloth, and 10 ml added to a 50 ml conical flask containing 400 mg. of standard substrate (68% corn starch+17% cellulose+15% extracted soybean meal), 10 ml. of a pH 6.8 buffer and the test compound. The flasks are gassed with oxygen free nitrogen for about two minutes, and incubated in a shaking water bath at 39° C. for about 16 hours. All tests are conducted in triplicate.
After incubation, 5 ml. of the sample is mixed with 1 ml. of 25% metaphosphoric acid. After 10 minutes 0.25 ml. of formic acid is added and the mixture centrifuged at 1,500 r.p.m. for 10 minutes. Samples are then analyzed by gas-liquid chromatograhy by the method of D. W. Kellog, J. Dairy Science, 52, 1690 (1969). Peak heights for acetic, propionic and butyric acids are determined for samples from untreated and treated incubation flasks.

[2] = system: coccidial infections in poultry; experiment: activity against coccidial infections in poultry; format: in vivo
Procedure: (§1) Efficacy data for Antibiotic Compound 53,607 and its salts against coccidial infections in chickens was obtained in the following fashion. Groups of 3-5 ten-day old SPF white leghorn cockerel chicks were fed a mash diet containing Antibiotic Compound 53,607 or its sodium and/or potassium salt uniformly dispersed therein. After being on this ration for 24 hours each chick was inoculated per os with oocysts of the particular species of Eimeria being tested. Other groups of 3-5 ten-day old chicks were fed a similar mash diet free of Antibiotic Compound 53,607 or its salts. They were also infected after 24 hours and served as infected controls. Yet other groups of 3-5 ten-day old chicks were fed the mash diet free of Antibiotic Compound 53,607 and were not infected with coccidia. These served as normal controls. The results of treatment were evaluated after five days in the case of E. acervulina, and six days for all other challenges.

[3] = system: Gram-positive microorganisms; experiment: inhibitory action against growth of Gram-positive microorganisms; format: cell-based; conditions: in vitro
Procedure: (§2) In Table I, below, the results of in vitro MIC tests are summarized. For this test each organism is inoculated in a series of test tubes containing nutrient medium and varying concentrations of Compound 53,607 to determine the minimal concentration of the antibiotic in mcg/ml which inhibits the growth of the organism over a period of 24 hours (MIC).

[4] = system: Escherischia coli; experiment: in vitro MIC test; format: cell-based; conditions: 24 h
Procedure: as §2

[5] = system: Enterobacteriacese aerogenes; experiment: in vitro MIC test; format: cell-based; conditions: 24 h
Procedure: as §2

[6] = system: Pseudomonas aeruginosa; experiment: in vitro MIC test; format: cell-based; conditions: 24 h
Procedure: as §2

[7] = system: Klebsiella pneumoniae; experiment: in vitro MIC test; format: cell-based; conditions: 24 h
Procedure: as §2

[8] = system: Serratia marcescens; experiment: in vitro MIC test; format: cell-based; conditions: 24 h
Procedure: as §2

[9] = solubility; format: physicochemical
[10] = system: Eimeria brunetti; experiment: efficacy against coccidial infections in chickens; format: in vivo; conditions: for Average degree of Infection: lesion score 0 to 3; for Average degree of Infection / Weight Gain: six days; for Ratio: lesion score treated / infected control
Procedure: as §1
(§3) ^1 The criteria used to measure anticoccidial activity consisted of
(§4) lesion scores of 0 to 4 for E. tenella after J. E. Lynch "A New Method fo
(§5) the Primary Evaluation of Anticoccidial Activity." , Am. J. Vet. Res.
(§6) 22:324-326 (1961); and 0 to 3 for the other species based on modification
(§7) of the scoring system devised by J. Johnson and W. H. Reid, "Anticoccidia
(§8) drugs. Lesion Scoring Techniques in Battery and Floor Pen Experiments in
(§9) Chicks.", Exp. Parasit. 28: 30-36(1970). A constant ratio was established
(§10) by dividing the lesion score of each treated group by the lesion score of […]

[11] = system: Eimeria necatrix; experiment: efficacy against coccidial infections in chickens; format: in vivo; conditions: for Average degree of Infection: lesion score 0 to 3; for Average degree of Infection / Weight Gain: six days; for Ratio: lesion score treated / infected control
Procedure: as §1, §3, §4, §5, §6, §7, §8, §9, §10

[12] = system: Eimeria tenella; experiment: efficacy against coccidial infections in chickens; format: in vivo; conditions: for Average degree of Infection: lesion score 0 to 4
Procedure: as §1, §3, §4, §5, §6, §7, §8, §9, §10

[13] = system: Eimeria maxima; experiment: efficacy against coccidial infections in chickens; format: in vivo; conditions: for Average degree of Infection: lesion score 0 to 3; for Average degree of Infection / Weight Gain: six days; for Ratio: lesion score treated / infected control
Procedure: as §1, §3, §4, §5, §6, §7, §8, §9, §10

[14] = system: Eimeria acervulina; experiment: efficacy against coccidial infections in chickens; format: in vivo; conditions: for Weight Gain / Average degree of Infection: five days; for Average degree of Infection: lesion score 0 to 3; for Ratio: lesion score treated / infected control
Procedure: as §1, §3, §4, §5, §6, §7, §8, §9, §10

[15] = 25 ppm in diet, value in parentheses (not explained)
[16] = 50 ppm in diet, value in parentheses (not explained)
[17] = 100 ppm in diet, value in parentheses (not explained)

## CC[C@@]1([C@@H]2O[C@@H]([C@H]3O[C@@](O)(CO)[C@H](C)C[C@@H]3C)C[C@@H]2C)CC[C@H]([C@]2(C)CC[C@]3(C[C@H](O)[C@@H](C)[C@@H]([C@@H](C)[C@@H](OC)[C@H](C)C(=O)O)O3)O2)O1 [Monensin, reference compound]
[1]; 10 μg./ml.
  increase of propionic acid over the control: about 20%

## CC(=CC(C)C1OC2(CCC(C)(C3CCC(C)C4(OC(C5OC(O)(CO)C(C)CC5C)CC4C)O3)O2)CC(O)C1C)C(=O)C(C)CC(C)C(=O)O (stereo not drawn) [Antibiotic Compound 53,607]
[2]
  activity against coccidial infections in poultry: excellent activity
[3]
  inhibitory action against growth: exhibits inhibitory action
[4]
  MIC: > 50 µg/mL
[5]
  MIC: > 50 µg/mL
[6]
  MIC: > 50 µg/mL
[7]
  MIC: > 50 µg/mL
[8]
  MIC: > 50 µg/mL
[1]; 5 μg./ml.
  increase in propionic acid: about 40%
[1]; 20 μg./ml.
  increase in propionic acid: about 43%
[1]; 20 micrograms per milliliter, first comparison (with Monensin)
  increase in the production of propionic acid over control: about 57%
[9]; chloroform
  solubility in chloroform: soluble
[9]; ethyl acetate
  solubility in ethyl acetate: soluble
[9]; methanol
  solubility in methanol: soluble
[9]; methylisobutyl ketone
  solubility in methylisobutyl ketone: soluble
[9]; water
  solubility in water: insoluble
[10]; 25 ppm in diet
  Average degree of Infection: 2.6
  Ratio: 1.44
  Weight Gain: 47%
[10]; 50 ppm in diet
  Average degree of Infection: 1.0
  Ratio: 0.55
  Weight Gain: 49%
[10]; 100 ppm in diet
  Average degree of Infection: 0.4
  Ratio: 0.22
  Weight Gain: 47%
[10]; chickens, diet, 50 to 200 ppm
  controlling infections: effective in controlling infections
[11]; 25 ppm in diet
  Average degree of Infection: 0.6
  Ratio: 0.33
  Weight Gain: 111%
[11]; 50 ppm in diet
  Average degree of Infection: 0.2
  Ratio: 0.11
  Weight Gain: 99%
[11]; 100 ppm in diet
  Average degree of Infection: 0.0
  Ratio: 0.00
  Weight Gain: 69%
[11]; chickens, diet, 50 to 200 ppm
  controlling infections: effective in controlling infections
[12]; 25 ppm in diet, six days
  Average degree of Infection: 3.0
  Weight Gain: 47%
[12]; 25 ppm in diet, lesion score treated / infected control
  Ratio: 0.95
[12]; [15]
  Ratio: 0.49
  Weight Gain: 102%
  Average degree of Infection: 1.7
[12]; 50 ppm in diet, six days
  Average degree of Infection: 2.7
  Weight Gain: 22%
[12]; 50 ppm in diet, lesion score treated / infected control
  Ratio: 0.86
[12]; [16]
  Ratio: 0.09
  Weight Gain: 97%
  Average degree of Infection: 0.3
[12]; 100 ppm in diet, six days
  Average degree of Infection: 1.0
  Weight Gain: 57%
[12]; 100 ppm in diet, lesion score treated / infected control
  Ratio: 0.32
[12]; [17]
  Ratio: 0.37
  Weight Gain: 60%
  Average degree of Infection: 1.3
[12]; 200 ppm in diet, six days
  Average degree of Infection: 1.3
  Weight Gain: 37%
[12]; 200 ppm in diet, lesion score treated / infected control
  Ratio: 0.41
[12]; chickens, diet, 50 to 200 ppm
  controlling infections: effective in controlling infections
[13]; 25 ppm in diet
  Average degree of Infection: 1.4
  Ratio: 0.88
  Weight Gain: 51%
[13]; 50 ppm in diet
  Average degree of Infection: 1.0
  Ratio: 0.63
  Weight Gain: 70%
[13]; 100 ppm in diet
  Average degree of Infection: 0.8
  Ratio: 0.50
  Weight Gain: 37%
[13]; 200 ppm in diet
  Average degree of Infection: 1.5
  Ratio: 0.94
  Weight Gain: 10%
[13]; chickens, diet, 50 to 200 ppm
  controlling infections: effective in controlling infections
[14]; 25 ppm in diet
  Weight Gain: 7%
  Average degree of Infection: 2.0
  Ratio: 1.00
[14]; 50 ppm in diet
  Weight Gain: 18%
  Average degree of Infection: 2.0
  Ratio: 1.00
[14]; 100 ppm in diet
  Weight Gain: 22%
  Average degree of Infection: 1.2
  Ratio: 0.60
[14]; 200 ppm in diet
  Weight Gain: 2%
  Average degree of Infection: 1.5
  Ratio: 0.75
[14]; chickens, diet, 50 to 200 ppm
  controlling infections: effective in controlling infections
